From patent US11053204B2, “Pyrimidinyloxy benzene derivatives as herbicides” (FMC Corporation, priority 2015, dated 2021)

Columns and labels:
Type in all cases: in vivo
kochia (Kochia scoparia) [1] = experiment: Test A preemergence, visual injury rating; conditions: 0 to 100 scale (0 no effect, 100 complete control)
Description: (§1) Seeds of plant species selected from barnyardgrass (Echinochloa crus-galli), kochia (Kochia scoparia), ragweed (common ragweed, Ambrosia elatior), Italian ryegrass (Lolium multiflorum), large (Lg) crabgrass (Digitaria sanguinalis), giant foxtail (Setaria faberii), morningglory (Ipomoea spp.), pigweed (Amaranthus retroflexus), velvetleaf (Abutilon theophrasti), wheat (Triticum aestivum), and corn (Zea mays) were planted into a blend of loam soil and sand and treated preemergence with a directed soil spray using test chemicals formulated in a non-phytotoxic solvent mixture which included a surfactant.
(§2) At the same time, plants selected from these crop and weed species and also blackgrass (Alopecurus myosuroides), and galium (catchweed bedstraw, Galium aparine) were planted in pots containing the same blend of loam soil and sand and treated with postemergence applications of test chemicals formulated in the same manner. Plants ranged in height from 2 to 10 cm and were in the one- to two-leaf stage for the postemergence treatment. Treated plants and untreated controls were maintained in a greenhouse for approximately 10 days, after which time all treated plants were compared to untreated controls and visually evaluated for injury. Plant response ratings, summarized in Table A, are based on a 0 to 100 scale where 0 is no effect and 100 is complete control. A dash (-) response means no test result.

[2] = test system: barnyardgrass (Echinochloa crus-galli); experiment: Test A preemergence, visual injury rating; conditions: 0 to 100 scale (0 no effect, 100 complete control)
Description: as §1, §2

[3] = test system: giant foxtail (Setaria faberii); experiment: Test A preemergence, visual injury rating; conditions: 0 to 100 scale (0 no effect, 100 complete control)
Description: as §1, §2

[4] = test system: pigweed (Amaranthus retroflexus); experiment: Test A preemergence, visual injury rating; conditions: 0 to 100 scale (0 no effect, 100 complete control)
Description: as §1, §2

[5] = test system: ragweed (common ragweed, Ambrosia elatior); experiment: Test A preemergence, visual injury rating; conditions: 0 to 100 scale (0 no effect, 100 complete control)
Description: as §1, §2

[6] = test system: Italian ryegrass (Lolium multiflorum); experiment: Test A preemergence, visual injury rating; conditions: 0 to 100 scale (0 no effect, 100 complete control)
Description: as §1, §2

kochia (Kochia scoparia) [7] = experiment: Test A postemergence, visual injury rating; conditions: 0 is no effect, 100 is complete control
Description: as §1, §2

corn (Zea mays) = experiment: Test A postemergence, visual injury rating; conditions: 0 is no effect, 100 is complete control
Description: as §1, §2

[8] = test system: galium (catchweed bedstraw, Galium aparine); experiment: Test A postemergence, visual injury rating; conditions: 0 is no effect, 100 is complete control
Description: as §1, §2

[9] = test system: barnyardgrass (Echinochloa crus-galli); experiment: Test A postemergence, visual injury rating; conditions: 0 is no effect, 100 is complete control
Description: as §1, §2

[10] = test system: wheat (Triticum aestivum); experiment: Test A postemergence, visual injury rating; conditions: 0 is no effect, 100 is complete control
Description: as §1, §2

[11] = test system: giant foxtail (Setaria faberii); experiment: Test A postemergence, visual injury rating; conditions: 0 is no effect, 100 is complete control
Description: as §1, §2

[12] = test system: pigweed (Amaranthus retroflexus); experiment: Test A postemergence, visual injury rating; conditions: 0 is no effect, 100 is complete control
Description: as §1, §2

[13] = test system: ragweed (common ragweed, Ambrosia elatior); experiment: Test A postemergence, visual injury rating; conditions: 0 is no effect, 100 is complete control
Description: as §1, §2

[14] = test system: blackgrass (Alopecurus myosuroides); experiment: Test A postemergence, visual injury rating; conditions: 0 is no effect, 100 is complete control
Description: as §1, §2

[15] = test system: Italian ryegrass (Lolium multiflorum); experiment: Test A postemergence, visual injury rating; conditions: 0 is no effect, 100 is complete control
Description: as §1, §2

| Structure (SMILES) | Kochia plant response rating (kochia (Kochia scoparia) [1]; 125 g ai/ha) | Kochia plant response rating (kochia (Kochia scoparia) [1]; 500 g ai/ha) | Barnyardgrass plant response rating ([2]; 125 g ai/ha) | Barnyardgrass plant response rating ([2]; 500 g ai/ha) | Foxtail, Giant plant response rating ([3]; 125 g ai/ha) | Foxtail, Giant plant response rating ([3]; 500 g ai/ha) | Pigweed plant response rating ([4]; 125 g ai/ha) | Pigweed plant response rating ([4]; 500 g ai/ha) | Ragweed plant response rating ([5]; 125 g ai/ha) | Ragweed plant response rating ([5]; 500 g ai/ha) | Ryegrass, Italian plant response rating ([6]; 125 g ai/ha) | Ryegrass, Italian plant response rating ([6]; 500 g ai/ha) | Kochia plant response rating (0 to 100 scale) (kochia (Kochia scoparia) [7]; 125 g ai/ha) | Kochia plant response rating (0 to 100 scale) (kochia (Kochia scoparia) [7]; 500 g ai/ha) | Corn plant response rating (0 to 100 scale) (corn (Zea mays); 125 g ai/ha) | Corn plant response rating (0 to 100 scale) (corn (Zea mays); 500 g ai/ha) | Galium plant response rating (0 to 100 scale) ([8]; 125 g ai/ha) | Galium plant response rating (0 to 100 scale) ([8]; 500 g ai/ha) | Barnyardgrass plant response rating (0 to 100 scale) ([9]; 125 g ai/ha) | Barnyardgrass plant response rating (0 to 100 scale) ([9]; 500 g ai/ha) | also measured |
| --- | --- | --- | --- | --- | --- | --- | --- | --- | --- | --- | --- | --- | --- | --- | --- | --- | --- | --- | --- | --- | --- |
| O=C(OCCC(F)(F)F)c1c(F)cccc1Oc1ncc(Cl)cn1 [Compound 42] | 0 | 0 | 0 | 0 | 0 | 0 | 0 | 30 | 0 | 0 | 0 | 0 | 30 | 60 | 20 | 30 | 0 | 0 | 0 | 0 | Wheat plant response rating (0 to 100 scale) ([10]; 125 g ai/ha): 0; Wheat plant response rating (0 to 100 scale) ([10]; 500 g ai/ha): 0; Foxtail, Giant plant response rating (0 to 100 scale) ([11]; 125 g ai/ha): 0; Foxtail, Giant plant response rating (0 to 100 scale) ([11]; 500 g ai/ha): 0; Pigweed plant response rating (0 to 100 scale) ([12]; 125 g ai/ha): 80; Pigweed plant response rating (0 to 100 scale) ([12]; 500 g ai/ha): 90; Ragweed plant response rating (0 to 100 scale) ([13]; 125 g ai/ha): 0; Ragweed plant response rating (0 to 100 scale) ([13]; 500 g ai/ha): 0; Blackgrass plant response rating (0 to 100 scale) ([14]; 125 g ai/ha): 0; Blackgrass plant response rating (0 to 100 scale) ([14]; 500 g ai/ha): 0; Ryegrass, Italian plant response rating (0 to 100 scale) ([15]; 125 g ai/ha): 0; Ryegrass, Italian plant response rating (0 to 100 scale) ([15]; 500 g ai/ha): 0 |
| N#Cc1cnc(Oc2cccc(Br)c2C(=O)OCC(F)(F)F)nc1 [Compound 31] | 0 | 0 | 0 | 0 | 0 | 0 | 0 | 0 | 0 | 0 | 0 | 0 | 0 | 0 | 0 | 0 | 0 | 0 | 0 | 0 | Wheat plant response rating (0 to 100 scale) ([10]; 125 g ai/ha): 0; Wheat plant response rating (0 to 100 scale) ([10]; 500 g ai/ha): 0; Foxtail, Giant plant response rating (0 to 100 scale) ([11]; 125 g ai/ha): 0; Foxtail, Giant plant response rating (0 to 100 scale) ([11]; 500 g ai/ha): 0; Pigweed plant response rating (0 to 100 scale) ([12]; 125 g ai/ha): 0; Pigweed plant response rating (0 to 100 scale) ([12]; 500 g ai/ha): 0; Ragweed plant response rating (0 to 100 scale) ([13]; 125 g ai/ha): 0; Ragweed plant response rating (0 to 100 scale) ([13]; 500 g ai/ha): 0; Blackgrass plant response rating (0 to 100 scale) ([14]; 125 g ai/ha): 0; Blackgrass plant response rating (0 to 100 scale) ([14]; 500 g ai/ha): 0; Ryegrass, Italian plant response rating (0 to 100 scale) ([15]; 125 g ai/ha): 0; Ryegrass, Italian plant response rating (0 to 100 scale) ([15]; 500 g ai/ha): 0 |
| N#Cc1cccc(Oc2ncc(Cl)cn2)c1C(=O)OCC(F)(F)F [Compound 32] | 0 | 0 | 0 | 0 | 0 | 0 | 30 | 30 | 0 | 0 | 0 | 0 | 0 | 0 | 0 | 0 | 0 | 0 | 0 | 0 | Wheat plant response rating (0 to 100 scale) ([10]; 125 g ai/ha): 0; Wheat plant response rating (0 to 100 scale) ([10]; 500 g ai/ha): 0; Foxtail, Giant plant response rating (0 to 100 scale) ([11]; 125 g ai/ha): 0; Foxtail, Giant plant response rating (0 to 100 scale) ([11]; 500 g ai/ha): 0; Pigweed plant response rating (0 to 100 scale) ([12]; 125 g ai/ha): 20; Pigweed plant response rating (0 to 100 scale) ([12]; 500 g ai/ha): 30; Ragweed plant response rating (0 to 100 scale) ([13]; 125 g ai/ha): 0; Ragweed plant response rating (0 to 100 scale) ([13]; 500 g ai/ha): 0; Blackgrass plant response rating (0 to 100 scale) ([14]; 125 g ai/ha): 0; Blackgrass plant response rating (0 to 100 scale) ([14]; 500 g ai/ha): 0; Ryegrass, Italian plant response rating (0 to 100 scale) ([15]; 125 g ai/ha): 0; Ryegrass, Italian plant response rating (0 to 100 scale) ([15]; 500 g ai/ha): 0 |
| O=C(OCCC(F)(F)F)c1ccccc1Oc1ncc(Cl)cn1 [Compound 17] | 0 | 0 | 0 | 0 | 0 | 0 | 0 | 10 | 0 | 0 | 0 | 0 | 0 | 0 | 0 | 20 | 0 | 0 | 0 | 0 | Wheat plant response rating (0 to 100 scale) ([10]; 125 g ai/ha): 0; Wheat plant response rating (0 to 100 scale) ([10]; 500 g ai/ha): 0; Foxtail, Giant plant response rating (0 to 100 scale) ([11]; 125 g ai/ha): 0; Foxtail, Giant plant response rating (0 to 100 scale) ([11]; 500 g ai/ha): 0; Pigweed plant response rating (0 to 100 scale) ([12]; 125 g ai/ha): 20; Pigweed plant response rating (0 to 100 scale) ([12]; 500 g ai/ha): 40; Ragweed plant response rating (0 to 100 scale) ([13]; 125 g ai/ha): 0; Ragweed plant response rating (0 to 100 scale) ([13]; 500 g ai/ha): 0; Blackgrass plant response rating (0 to 100 scale) ([14]; 125 g ai/ha): 0; Blackgrass plant response rating (0 to 100 scale) ([14]; 500 g ai/ha): 0; Ryegrass, Italian plant response rating (0 to 100 scale) ([15]; 125 g ai/ha): 0; Ryegrass, Italian plant response rating (0 to 100 scale) ([15]; 500 g ai/ha): 0 |
| O=C(OCCC(F)(F)F)c1c(F)cccc1Oc1ncc(Br)cn1 [Compound 41] | 30 | 30 | 0 | 0 | 0 | 0 | 30 | 40 | 50 | 80 | 0 | 0 | 20 | 60 | 0 | 0 | 0 | 0 | 0 | 0 | Wheat plant response rating (0 to 100 scale) ([10]; 125 g ai/ha): 0; Wheat plant response rating (0 to 100 scale) ([10]; 500 g ai/ha): 0; Foxtail, Giant plant response rating (0 to 100 scale) ([11]; 125 g ai/ha): 0; Foxtail, Giant plant response rating (0 to 100 scale) ([11]; 500 g ai/ha): 0; Pigweed plant response rating (0 to 100 scale) ([12]; 125 g ai/ha): 90; Pigweed plant response rating (0 to 100 scale) ([12]; 500 g ai/ha): 90; Ragweed plant response rating (0 to 100 scale) ([13]; 125 g ai/ha): 0; Ragweed plant response rating (0 to 100 scale) ([13]; 500 g ai/ha): 10; Blackgrass plant response rating (0 to 100 scale) ([14]; 125 g ai/ha): 0; Blackgrass plant response rating (0 to 100 scale) ([14]; 500 g ai/ha): 0; Ryegrass, Italian plant response rating (0 to 100 scale) ([15]; 125 g ai/ha): 0; Ryegrass, Italian plant response rating (0 to 100 scale) ([15]; 500 g ai/ha): 0 |
